Test results reported in patent USRE47689E1, “Compounds for treating spinal muscular atrophy” (PTC Therapeutics, Inc., priority 2011, dated 2019).
Read-outs that look alike come from different tables or passages of the source.

Columns and labels:
[1] = test system: SMN2 minigene (full length SMN2 minigene mRNA containing SMN2 exon 7); assay: SMN2 minigene mRNA splicing RT-qPCR assay in cultured cells; type: cell-based, human; settings: Homo sapiens, HEK293-H, read-out: EC1.5x for production of full length SMN2 mRNA
Outline: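 Lysates → one-step RT-qPCR, minigene-specific primers (0.4 μM final) + GAPDH multiplex, 40 cycles. FL/GAPDH vs DMSO; EC1.5x, star-binned.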

[2] = test system: Smn protein; assay: Smn protein assay in cultured cells (SMN HTRF); type: cell-based, human; settings: for EC1.5x (concentration giving 1.5-fold Smn protein increase): read-out: EC1.5x for Smn protein expression
Outline: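 Smn in SMA fibroblast lysates, measured by anti-SMN HTRF after 48 h compound exposure; EC1.5x from fold change over vehicle.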

[3] = HEK293H cells stably transfected with SMN2-A minigene, 24 hours, 7-point concentration curve, 1.5-fold relative to vehicle-treated cells
[4] = SMA Type 1 patient fibroblast cells (GM03813), 48 hours, 7-point concentration curve, SMN HTRF, concentration producing 1.5 times Smn protein vs DMSO vehicle control
[5] = SMA patient fibroblast cells, 48 hours, 7-point concentration data, fold increase relative to vehicle control (SMN HTRF)

## Cc1cn2cc(-c3cc4ccc(N5CCN(C)[C@H](C)C5)cc4oc3=O)cnc2n1 [Compound 660, 7-[(3R)-3,4-dimethylpiperazin-1-yl]-3-(2-methylimidazo[1,2-a]pyrimidin-6-yl)-2H-chromen-2-one]
[1]; [3]
  EC (1.5-fold): < 0.1 µM
[2]; [4]
  EC1.5x (concentration giving 1.5-fold Smn protein increase): 300 to 1000 nM
[2]; [5]
  maximum fold (Fold) increase of Smn protein: ***** (fold increase >1.65)
other
  melting point: 280 to 282 °C

## O=c1oc2cc(N3CC4CCC3CN4)ccc2cc1-c1cn2cccc(Cl)c2n1 (centres unmarked) [Compound 527, 3-(8-chloroimidazo[1,2-a]pyridin-2-yl)-7-(2,5-diazabicyclo[2.2.2]oct-2-yl)-2H-chromen-2-one]
[1]; [3]
  EC (1.5-fold): 0.1 to 0.3 µM
[2]; [4]
  EC1.5x (concentration giving 1.5-fold Smn protein increase): < 300 nM
[2]; [5]
  maximum fold (Fold) increase of Smn protein: **** (fold increase between >1.5 and ≤1.65)
other
  melting point: 178 to 182 °C

## Cc1cn2cc(-c3cc4ccc(C5CCN(CCO)CC5)cc4oc3=O)ccc2n1 [Compound 829, 7-[1-(2-hydroxyethyl)piperidin-4-yl]-3-(2-methylimidazo[1,2-a]pyridin-6-yl)-2H-chromen-2-one]
[1]; [3]
  EC (1.5-fold): < 0.1 µM
[2]; [4]
  EC1.5x (concentration giving 1.5-fold Smn protein increase): < 300 nM
[2]; [5]
  maximum fold (Fold) increase of Smn protein: ***** (fold increase >1.65)
other
  melting point: 222 to 226 °C

## Cc1ccc2nc(-c3cc4ccc(N(C)CCN(C)C)cc4oc3=O)cn2c1 [Compound 175, 7-{[2-(dimethylamino)ethyl](methyl)amino}-3-(6-methylimidazo[1,2-a]pyridin-2-yl)-2H-chromen-2-one]
[1]; [3]
  EC (1.5-fold): 3 to 30 µM
[2]; [5]
  maximum fold (Fold) increase of Smn protein: * (maximum fold increase of ≤1.2)
other
  melting point: 140 to 180 °C (dec.)

## Cc1nc(C)c2cc(-c3cc4ccc(N5CCNCC5)cc4oc3=O)sc2n1 [Cpd 705, 3-(2,4-dimethylthieno[2,3-d]pyrimidin-6-yl)-7-(piperazin-1-yl)-2H-chromen-2-one]
[1]; [3]
  EC (1.5-fold): 0.1 to 0.3 µM
[2]; [5]
  maximum fold (Fold) increase of Smn protein: *** (fold increase between >1.35 and ≤1.5)
other
  melting point: 275 °C (dec.)

## Cc1cn2cc(-c3cc4ccc(N(C)[C@H]5CCN(C)C5)cc4oc3=O)nc2c(C)n1 [Compound 656, 3-(6,8-dimethylimidazo[1,2-a]pyrazin-2-yl)-7-{methyl[(3S)-1-methylpyrrolidin-3-yl]amino}-2H-chromen-2-one]
[1]; [3]
  EC (1.5-fold): < 0.1 µM
[2]; [4]
  EC1.5x (concentration giving 1.5-fold Smn protein increase): < 300 nM
[2]; [5]
  maximum fold (Fold) increase of Smn protein: ***** (fold increase >1.65)
other
  melting point: 178 to 184 °C

## Cc1cn2cc(-c3cc4ccc(N5CCN(C(C)C)CC5)cc4oc3=O)nc2cn1 [Compound 833, 3-(6-methylimidazo[1,2-a]pyrazin-2-yl)-7-[4-(propan-2-yl)piperazin-1-yl]-2H-chromen-2-one]
[1]; [3]
  EC (1.5-fold): < 0.1 µM
[2]; [4]
  EC1.5x (concentration giving 1.5-fold Smn protein increase): < 300 nM
[2]; [5]
  maximum fold (Fold) increase of Smn protein: ***** (fold increase >1.65)
other
  melting point: 275 to 280 °C

## Cc1cn2cc(-c3ccc4cc(N5CCNCC5)c(=O)oc4c3)ccc2n1 [Cpd 818, 7-(2-methylimidazo[1,2-a]pyridin-6-yl)-3-(piperazin-1-yl)-2H-chromen-2-one]
[1]; [3]
  EC (1.5-fold): 1 to 3 µM
[2]; [5]
  maximum fold (Fold) increase of Smn protein: * (maximum fold increase of ≤1.2)
other
  melting point: 174 to 178 °C

## C[C@H]1CN(c2ccc3cc(-c4cccc(F)c4F)c(=O)oc3c2)CCN1 [Compound 546, 3-(2,3-difluorophenyl)-7-[(3S)-3-methylpiperazin-1-yl]-2H-chromen-2-one]
[1]; [3]
  EC (1.5-fold): 3 to 30 µM
[2]; [5]
  maximum fold (Fold) increase of Smn protein: * (maximum fold increase of ≤1.2)
other
  melting point: 116 to 118 °C

## CCN1CCN(c2ccc3cc(-c4cc5cnc(C)cn5c4)c(=O)oc3c2)CC1 [Compound 640, 7-(4-ethylpiperazin-1-yl)-3-(3-methylpyrrolo[1,2-a]pyrazin-7-yl)-2H-chromen-2-one]
[1]; [3]
  EC (1.5-fold): < 0.1 µM
[2]; [4]
  EC1.5x (concentration giving 1.5-fold Smn protein increase): < 300 nM
[2]; [5]
  maximum fold (Fold) increase of Smn protein: **** (fold increase between >1.5 and ≤1.65)
other
  melting point: 208 to 210 °C

## CN1CCN(c2cc(F)c3cc(-c4cn5ccsc5n4)c(=O)oc3c2)CC1 [Compound 372, 5-fluoro-3-(imidazo[2,1-b][1,3]thiazol-6-yl)-7-(4-methylpiperazin-1-yl)-2H-chromen-2-one]
[1]; [3]
  EC (1.5-fold): 0.1 to 0.3 µM
[2]; [5]
  maximum fold (Fold) increase of Smn protein: ** (fold increase between >1.2 and ≤1.35)
other
  melting point: 268 to 271 °C

## CN(CCO)Cc1ccc2cc(-c3nc4ccccc4s3)c(=O)oc2c1 [Compound 79, 3-(1,3-benzothiazol-2-yl)-7-{[(2-hydroxyethyl)(methyl)amino]methyl}-2H-chromen-2-one]
[1]; [3]
  EC (1.5-fold): 1 to 3 µM
[2]; [5]
  maximum fold (Fold) increase of Smn protein: *** (fold increase between >1.35 and ≤1.5)
other
  melting point: 182 to 184 °C

## Cc1ccn2cc(-c3cc4ccc(N5C[C@@H](C)N[C@@H](C)C5)cc4oc3=O)nc2c1 [Compound 133, 7-[(3R,5S)-3,5-dimethylpiperazin-1-yl]-3-(7-methylimidazo[1,2-a]pyridin-2-yl)-2H-chromen-2-one]
[1]; [3]
  EC (1.5-fold): 0.1 to 0.3 µM
[2]; [4]
  EC1.5x (concentration giving 1.5-fold Smn protein increase): 3000 to 10000 nM
[2]; [5]
  maximum fold (Fold) increase of Smn protein: *** (fold increase between >1.35 and ≤1.5)
other
  melting point: 210 to 217 °C

## COc1cccc(-c2cc3ccc(N4CCN[C@H](C)C4)cc3oc2=O)n1 [Compound 361, 3-(6-methoxypyridin-2-yl)-7-[(3R)-3-methylpiperazin-1-yl]-2H-chromen-2-one]
[1]; [3]
  EC (1.5-fold): 1 to 3 µM
[2]; [5]
  maximum fold (Fold) increase of Smn protein: ** (fold increase between >1.2 and ≤1.35)
other
  melting point: 150 to 152 °C

## C[C@@H]1CN(c2ccc3cc(-c4cccs4)c(=O)oc3c2)C[C@H](C)N1 [Compound 364, 7-[(3R,5S)-3,5-dimethylpiperazin-1-yl]-3-(thiophen-2-yl)-2H-chromen-2-one]
[1]; 24 h
  EC (1.5-fold): 1 to 3 µM
[2]; [5]
  maximum fold (Fold) increase of Smn protein: * (maximum fold increase of ≤1.2)
other
  melting point: 150 to 152 °C

## CCN1CCN(c2ccc3cc(-c4cc5c(C)nc(C)cn5c4)c(=O)oc3c2)C[C@@H]1C [Compound 694, 3-(1,3-dimethylpyrrolo[1,2-a]pyrazin-7-yl)-7-[(3S)-4-ethyl-3-methylpiperazin-1-yl]-2H-chromen-2-one]
[1]; [3]
  EC (1.5-fold): < 0.1 µM
[2]; [4]
  EC1.5x (concentration giving 1.5-fold Smn protein increase): < 300 nM
[2]; [5]
  maximum fold (Fold) increase of Smn protein: **** (fold increase between >1.5 and ≤1.65)
other
  melting point: 173 to 175 °C

## COc1ccn2cc(-c3cc4ccc(N5CCCN(C)CC5)cc4oc3=O)nc2c1 [Compound 436, 3-(7-methoxyimidazo[1,2-a]pyridin-2-yl)-7-(4-methyl-1,4-diazepan-1-yl)-2H-chromen-2-one]
[1]; [3]
  EC (1.5-fold): 3 to 30 µM
[2]; [5]
  maximum fold (Fold) increase of Smn protein: * (maximum fold increase of ≤1.2)
other
  melting point: 198 to 207 °C

## Cc1cn2cc(-c3cc4ccc(C5=CCN(CCO)CC5)cc4oc3=O)nc2c(C)n1 [Compound 801, 3-(6,8-dimethylimidazo[1,2-a]pyrazin-2-yl)-7-[1-(2-hydroxyethyl)-1,2,3,6-tetrahydropyridin-4-yl]-2H-chromen-2-one]
[1]; 24 h
  EC (1.5-fold): < 0.1 µM
[2]
  maximum fold (Fold) increase of Smn protein: **** (key: *: maximum fold increase of ≤1.2; **: fold increase between >1.2 and ≤1.35; ***: fold increase between >1.35 and ≤1.5; ****: fold increase between >1.5 and ≤1.65; *****: fold increase >1.65)
  EC1.5x (concentration giving 1.5-fold Smn protein increase): < 300 nM
other
  melting point: 172 to 214 °C

## O=c1oc2cc(N3CCNCC3)ccc2cc1-c1nc2cncnc2[nH]1 [Compound 314, 7-(piperazin-1-yl)-3-(9H-purin-8-yl)-2H-chromen-2-one]
[1]; [3]
  EC (1.5-fold): 1 to 3 µM
[2]; [5]
  maximum fold (Fold) increase of Smn protein: * (maximum fold increase of ≤1.2)
other
  melting point: 291 to 297 °C

## COc1cccn2cc(-c3cc4ccc(N5CCN(C)CC5)cc4oc3=O)nc12 [Compound 403, 3-(8-methoxyimidazo[1,2-a]pyridin-2-yl)-7-(4-methylpiperazin-1-yl)-2H-chromen-2-one]
[1]; [3]
  EC (1.5-fold): 3 to 30 µM
[2]; [5]
  maximum fold (Fold) increase of Smn protein: * (maximum fold increase of ≤1.2)
other
  melting point: 202 to 205 °C

## CCCN1CCC(c2ccc3cc(-c4cn5cc(C)nc(C)c5n4)c(=O)oc3c2)CC1 [Compound 842, 3-(6,8-dimethylimidazo[1,2-a]pyrazin-2-yl)-7-(1-propylpiperidin-4-yl)-2H-chromen-2-one]
[1]; [3]
  EC (1.5-fold): < 0.1 µM
[2]; [4]
  EC1.5x (concentration giving 1.5-fold Smn protein increase): < 300 nM
[2]; [5]
  maximum fold (Fold) increase of Smn protein: ***** (fold increase >1.65)
other
  melting point: 208 to 212 °C

## Cc1cn2cc(-c3cc4ccc(N5CCNCC5)cc4oc3=O)nc2cn1 [Compound 567, 3-(6-methylimidazo[1,2-a]pyrazin-2-yl)-7-(piperazin-1-yl)-2H-chromen-2-one]
[1]; [3]
  EC (1.5-fold): < 0.1 µM
[2]; [4]
  EC1.5x (concentration giving 1.5-fold Smn protein increase): < 300 nM
[2]; [5]
  maximum fold (Fold) increase of Smn protein: ***** (fold increase >1.65)
other
  melting point: 288 to 290 °C

## O=c1oc2cc(N3CCNCC3)ccc2cc1Nc1ccccc1 [Compound 75, 3-(phenylamino)-7-(piperazin-1-yl)-2H-chromen-2-one]
[1]; 24 h
  EC (1.5-fold): 3 to 30 µM
[2]; [5]
  maximum fold (Fold) increase of Smn protein: * (maximum fold increase of ≤1.2)
other
  melting point: 140 to 143 °C
